Measured values: patent US8735601B2, “Pentamethine cyanine fluorescent dye with N-substituting at β-position of conjugated chain” (Dalian University of Technology, priority 2010, dated 2014)

Columns and labels:
[1] = Absorption and emission spectra of dyes in different solvents; format: physicochemical; parameters: key to Δλ1 / Δλ2: Stokes shift in nm; ε1 (molar extinction coefficient) / ε2 (molar extinction coefficient): scale not given here; conditions: for Δλ1: Stokes shift to absorption peak 1; for Δλ2: Stokes shift to absorption peak 2
Text: In the present invention, compounds IIa to IIg were synthesized based on compound II, and their spectral properties were investigated. Compared with the traditional pentamethine cyanine dye, for the novel pentamethine cyanine dye with N-substituting at β-position (deviated position), it was observed that, evident blue shift of absorption and emission wavelengths occurred, absorption wavelength blue shifted even largely than that of emission wavelength, absorption spectrum and fluorescence spectrum were no longer mirror-symmetric and had two absorption peaks and a single emission peak, and larger Stokes shift (minimum 60 and 150 nm, and maximum 90 and 230 nm) appeared.

[2] = Measurement of fluorescence quantum yield (Rhodamine B in ethanol as reference); format: physicochemical
[3] = molecular target: bovine serum albumin (BSA) (Bos taurus, UniProt P02769); assay: Titration of dye solution with BSA, fluorescence and UV absorption; format: binding; conditions: dye solution 1 μM, PBS pH 7.4; listed as Ha
Sequence of bovine serum albumin (BSA) (P02769 25-607): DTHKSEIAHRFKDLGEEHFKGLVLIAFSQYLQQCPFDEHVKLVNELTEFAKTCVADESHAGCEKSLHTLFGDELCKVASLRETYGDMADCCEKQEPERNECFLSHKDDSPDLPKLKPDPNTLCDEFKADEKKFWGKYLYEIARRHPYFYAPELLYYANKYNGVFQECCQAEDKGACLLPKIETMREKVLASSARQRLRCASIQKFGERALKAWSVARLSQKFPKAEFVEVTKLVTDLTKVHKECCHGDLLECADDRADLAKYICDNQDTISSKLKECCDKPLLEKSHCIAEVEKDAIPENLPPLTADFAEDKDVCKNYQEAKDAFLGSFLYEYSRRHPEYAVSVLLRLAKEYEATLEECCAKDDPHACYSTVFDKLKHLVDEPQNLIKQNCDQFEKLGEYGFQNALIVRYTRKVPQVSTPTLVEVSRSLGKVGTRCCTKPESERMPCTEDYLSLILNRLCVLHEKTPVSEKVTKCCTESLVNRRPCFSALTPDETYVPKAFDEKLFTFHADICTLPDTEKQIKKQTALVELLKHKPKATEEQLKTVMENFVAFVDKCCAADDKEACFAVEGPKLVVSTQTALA
Protocol: (§1) The solutions of compounds Ha to IIc in a concentration of 1×10^−6M (10 mM PBS buffer (pH=7.4) was used as solvent) was prepared, and 3 ml of the each dye solution was added into a cuvette, respectively. Then, an aqueous bovine serum albumin (BSA) stock solution with the concentration of 50 μg/μL (750 μM) was added dropwise into each of the dye solution. The fluorescence intensity of the dye was measured each 5 minutes after addition of BSA for fluorescence becoming stable, on UV-visible spectrophotometer (Mode: Hp8453) and fluorescence spectrophotometer (Mode: FP-6500).
Especially for dyes IIb and IIc, the fluorescence intensity thereof was increased linearly with addition of BSA to arrive at more than 30 folds.

calf thymus DNA (ct-DNA) = assay: Titration of dye solution with calf thymus DNA, fluorescence and UV absorption; format: binding; conditions: dye 1×10^−6 M, PBS pH 7.4; listed as Ha
Protocol: as §1, with “cuvette separately.” for “cuvette, respectively.”, “calf thymus DNA” for “bovine serum albumin (BSA)”, “was prepared,” for “with”, “the calf thymus DNA stock solution was determined as 1.5×10^−3 mM by the absorbance at 260 nm on UV absorption spectrophotometer. The calf thymus DNA stock solution” for “50 μg/μL (750 μM)”
From the interaction results of three dyes with calf thymus DNA, it can be known that no evident fluorescence increase was found after the interaction of the dye with the DNA. FIGS. 4 and 5 were titration figures of the interaction of dye lib with calf thymus DNA. […] All of these indicated DNA could be differentiated from protein by dyes IIa, IIb and IIc.

`CCN1/C(=C/C=C/C(N)=C/C2=[N+](CC)c3ccccc3C2(C)C)C(C)(C)c2ccccc21` [Dye IIa] showed a Δλ1 ([1]; solvent DCM) of 63, a Δλ1 ([1]; solvent DMSO) of 75 and a Δλ1 ([1]; solvent Ethanol) of 75. The Δλ1 ([1]; solvent Methanol) was 78, the Δλ1 ([1]; solvent THF) was 64 and the Δλ1 ([1]; solvent Water) was 92. It also gave a Δλ2 ([1]; solvent DCM) of 191, a Δλ2 ([1]; solvent DMSO) of 189 and a Δλ2 ([1]; solvent Ethanol) of 182. The Δλ2 ([1]; solvent Methanol) was 188, the Δλ2 ([1]; solvent THF) was 182 and the Δλ2 ([1]; solvent Water) was 203. For the same compound, the “ε1 (molar extinction coefficient)” value ([1]; solvent DCM) was 5.4 cm^−1M, the “ε2 (molar extinction coefficient)” value ([1]; solvent DCM) was 1.6 cm^−1M and the λabs1 ([1]; solvent DCM) was 546 nm. The λbs2 ([1]; solvent DCM) was 418 nm, the λem ([1]; solvent DCM) was 609 nm and the “ε1 (molar extinction coefficient)” value ([1]; solvent DMSO) was 4.9 cm^−1M. For the same compound, the “ε2 (molar extinction coefficient)” value ([1]; solvent DMSO) was 1.7 cm^−1M, the λabs1 ([1]; solvent DMSO) was 533 nm and the λbs2 ([1]; solvent DMSO) was 419 nm. For the same compound, the λem ([1]; solvent DMSO) was 608 nm, the “ε1 (molar extinction coefficient)” value ([1]; solvent Ethanol) was 4.8 cm^−1M and the “ε2 (molar extinction coefficient)” value ([1]; solvent Ethanol) was 2.0 cm^−1M. For the same compound, the λabs1 ([1]; solvent Ethanol) was 527 nm, the λbs2 ([1]; solvent Ethanol) was 420 nm and the λem ([1]; solvent Ethanol) was 602 nm. The “ε1 (molar extinction coefficient)” value ([1]; solvent Methanol) was 5.1 cm^−1M, the “ε2 (molar extinction coefficient)” value ([1]; solvent Methanol) was 2.0 cm^−1M and the λabs1 ([1]; solvent Methanol) was 528 nm. For the same compound, the λbs2 ([1]; solvent Methanol) was 418 nm, the λem ([1]; solvent Methanol) was 606 nm and the “ε1 (molar extinction coefficient)” value ([1]; solvent THF) was 4.8 cm^−1M. For the same compound, the “ε2 (molar extinction coefficient)” value ([1]; solvent THF) was 1.6 cm^−1M, the λabs1 ([1]; solvent THF) was 526 nm and the λbs2 ([1]; solvent THF) was 408 nm. For the same compound, the λem ([1]; solvent THF) was 590 nm, the “ε1 (molar extinction coefficient)” value ([1]; solvent Water) was 3.6 cm^−1M and the “ε2 (molar extinction coefficient)” value ([1]; solvent Water) was 1.7 cm^−1M. It also gave a λabs1 ([1]; solvent Water) of 527 nm, a λbs2 ([1]; solvent Water) of 416 nm and a λem ([1]; solvent Water) of 619 nm. The “Φ1 (fluorescence quantum yield)” value ([2]; solvent DCM) was 0.115, the “Φ2 (fluorescence quantum yield)” value ([2]; solvent DCM) was 0.032 and the “Φ1 (fluorescence quantum yield)” value ([2]; solvent DMSO) was 0.020. For the same compound, the “Φ2 (fluorescence quantum yield)” value ([2]; solvent DMSO) was 0.009, the “Φ1 (fluorescence quantum yield)” value ([2]; solvent Ethanol) was 0.014 and the “Φ2 (fluorescence quantum yield)” value ([2]; solvent Ethanol) was 0.009. The “Φ1 (fluorescence quantum yield)” value ([2]; solvent Methanol) was 0.007, the “Φ2 (fluorescence quantum yield)” value ([2]; solvent Methanol) was 0.004 and the “Φ1 (fluorescence quantum yield)” value ([2]; solvent THF) was 0.053. For the same compound, the “Φ2 (fluorescence quantum yield)” value ([2]; solvent THF) was 0.008, the “Φ1 (fluorescence quantum yield)” value ([2]; solvent Water) was 0.002 and the “Φ2 (fluorescence quantum yield)” value ([2]; solvent Water) was 0.001. For the same compound, the “change of fluorescence intensity by interaction with protein (BSA)” value [3] was “largely increased” and the “change of fluorescence by interaction with ct-DNA” value (calf thymus DNA (ct-DNA)) was “little fluorescence increase”.
`CCN1/C(=C/C=C/C(=C/C2=[N+](CC)c3ccccc3C2(C)C)N(Cc2ccccc2)Cc2ccccc2)C(C)(C)c2ccccc21` [Dye IIf] gave a Δλ1 ([1]; solvent DCM) of 87, a Δλ1 ([1]; solvent DMSO) of 90 and a Δλ1 ([1]; solvent Ethanol) of 87. For the same compound, the Δλ1 ([1]; solvent Methanol) was 90, the Δλ1 ([1]; solvent THF) was 86 and the Δλ1 ([1]; solvent Water) was 93. It also gave a Δλ2 ([1]; solvent DCM) of 162, a Δλ2 ([1]; solvent DMSO) of 151 and a Δλ2 ([1]; solvent Ethanol) of 163. For the same compound, the Δλ2 ([1]; solvent Methanol) was 166, the Δλ2 ([1]; solvent THF) was 156 and the Δλ2 ([1]; solvent Water) was 171. The “ε1 (molar extinction coefficient)” value ([1]; solvent DCM) was 3.1 cm^−1M, the “ε2 (molar extinction coefficient)” value ([1]; solvent DCM) was 2.1 cm^−1M and the λabs1 ([1]; solvent DCM) was 528 nm. For the same compound, the λbs2 ([1]; solvent DCM) was 453 nm, the λem ([1]; solvent DCM) was 615 nm and the “ε1 (molar extinction coefficient)” value ([1]; solvent DMSO) was 3.3 cm^−1M. The “ε2 (molar extinction coefficient)” value ([1]; solvent DMSO) was 2.2 cm^−1M, the λabs1 ([1]; solvent DMSO) was 521 nm and the λbs2 ([1]; solvent DMSO) was 460 nm. For the same compound, the λem ([1]; solvent DMSO) was 611 nm, the “ε1 (molar extinction coefficient)” value ([1]; solvent Ethanol) was 3.4 cm^−1M and the “ε2 (molar extinction coefficient)” value ([1]; solvent Ethanol) was 2.5 cm^−1M. The λabs1 ([1]; solvent Ethanol) was 528 nm, the λbs2 ([1]; solvent Ethanol) was 452 nm and the λem ([1]; solvent Ethanol) was 615 nm. For the same compound, the “ε1 (molar extinction coefficient)” value ([1]; solvent Methanol) was 3.4 cm^−1M, the “ε2 (molar extinction coefficient)” value ([1]; solvent Methanol) was 2.5 cm^−1M and the λabs1 ([1]; solvent Methanol) was 527 nm. For the same compound, the λbs2 ([1]; solvent Methanol) was 451 nm, the λem ([1]; solvent Methanol) was 617 nm and the “ε1 (molar extinction coefficient)” value ([1]; solvent THF) was 4.0 cm^−1M. For the same compound, the “ε2 (molar extinction coefficient)” value ([1]; solvent THF) was 2.0 cm^−1M, the λabs1 ([1]; solvent THF) was 523 nm and the λbs2 ([1]; solvent THF) was 453 nm. The λem ([1]; solvent THF) was 609 nm, the “ε1 (molar extinction coefficient)” value ([1]; solvent Water) was 2.5 cm^−1M and the “ε2 (molar extinction coefficient)” value ([1]; solvent Water) was 1.9 cm^−1M. For the same compound, the λabs1 ([1]; solvent Water) was 525 nm, the λbs2 ([1]; solvent Water) was 447 nm and the λem ([1]; solvent Water) was 618 nm. For the same compound, the “Φ1 (fluorescence quantum yield)” value ([2]; solvent DCM) was 0.113, the “Φ2 (fluorescence quantum yield)” value ([2]; solvent DCM) was 0.105 and the “Φ1 (fluorescence quantum yield)” value ([2]; solvent DMSO) was 0.004. The “Φ2 (fluorescence quantum yield)” value ([2]; solvent DMSO) was 0.005, the “Φ1 (fluorescence quantum yield)” value ([2]; solvent Ethanol) was 0.010 and the “Φ2 (fluorescence quantum yield)” value ([2]; solvent Ethanol) was 0.009. The “Φ1 (fluorescence quantum yield)” value ([2]; solvent Methanol) was 0.005, the “Φ2 (fluorescence quantum yield)” value ([2]; solvent Methanol) was 0.004 and the “Φ1 (fluorescence quantum yield)” value ([2]; solvent THF) was 0.036. The “Φ2 (fluorescence quantum yield)” value ([2]; solvent THF) was 0.034, the “Φ1 (fluorescence quantum yield)” value ([2]; solvent Water) was 0.001 and the “Φ2 (fluorescence quantum yield)” value ([2]; solvent Water) was 0.002.
`CCN1/C(=C/C=C/C(=C/C2=[N+](CC)c3ccccc3C2(C)C)Nc2ccccc2)C(C)(C)c2ccccc21` [Dye IIg] showed a Δλ1 ([1]; solvent DCM) of 75, a Δλ1 ([1]; solvent DMSO) of 80 and a Δλ1 ([1]; solvent Ethanol) of 77. For the same compound, the Δλ1 ([1]; solvent Methanol) was 77, the Δλ1 ([1]; solvent THF) was 83 and the Δλ1 ([1]; solvent Water) was 81. It also gave a Δλ2 ([1]; solvent DCM) of 180, a Δλ2 ([1]; solvent DMSO) of 230 and a Δλ2 ([1]; solvent Ethanol) of 206. It also gave a Δλ2 ([1]; solvent Methanol) of 208, a Δλ2 ([1]; solvent THF) of 236 and a Δλ2 ([1]; solvent Water) of 200. For the same compound, the “ε1 (molar extinction coefficient)” value ([1]; solvent DCM) was 3.6 cm^−1M, the “ε2 (molar extinction coefficient)” value ([1]; solvent DCM) was 2.1 cm^−1M and the λabs1 ([1]; solvent DCM) was 570 nm. For the same compound, the λbs2 ([1]; solvent DCM) was 465 nm, the λem ([1]; solvent DCM) was 645 nm and the “ε1 (molar extinction coefficient)” value ([1]; solvent DMSO) was 1.9 cm^−1M. The “ε2 (molar extinction coefficient)” value ([1]; solvent DMSO) was 2.1 cm^−1M, the λabs1 ([1]; solvent DMSO) was 566 nm and the λbs2 ([1]; solvent DMSO) was 416 nm. For the same compound, the λem ([1]; solvent DMSO) was 646 nm, the “ε1 (molar extinction coefficient)” value ([1]; solvent Ethanol) was 2.5 cm^−1M and the “ε2 (molar extinction coefficient)” value ([1]; solvent Ethanol) was 2.0 cm^−1M. The λabs1 ([1]; solvent Ethanol) was 563 nm, the λbs2 ([1]; solvent Ethanol) was 434 nm and the λem ([1]; solvent Ethanol) was 640 nm. The “ε1 (molar extinction coefficient)” value ([1]; solvent Methanol) was 2.3 cm^−1M, the “ε2 (molar extinction coefficient)” value ([1]; solvent Methanol) was 2.2 cm^−1M and the λabs1 ([1]; solvent Methanol) was 561 nm. The λbs2 ([1]; solvent Methanol) was 430 nm, the λem ([1]; solvent Methanol) was 638 nm and the “ε1 (molar extinction coefficient)” value ([1]; solvent THF) was 0.9 cm^−1M. For the same compound, the “ε2 (molar extinction coefficient)” value ([1]; solvent THF) was 2.8 cm^−1M, the λabs1 ([1]; solvent THF) was 556 nm and the λbs2 ([1]; solvent THF) was 403 nm. The λem ([1]; solvent THF) was 639 nm, the “ε1 (molar extinction coefficient)” value ([1]; solvent Water) was 1.7 cm^−1M and the “ε2 (molar extinction coefficient)” value ([1]; solvent Water) was 2.2 cm^−1M. It also gave a λabs1 ([1]; solvent Water) of 559 nm, a λbs2 ([1]; solvent Water) of 440 nm and a λem ([1]; solvent Water) of 640 nm. The “Φ1 (fluorescence quantum yield)” value ([2]; solvent DCM) was 0.064, the “Φ2 (fluorescence quantum yield)” value ([2]; solvent DCM) was 0.055 and the “Φ1 (fluorescence quantum yield)” value ([2]; solvent DMSO) was 0.014. For the same compound, the “Φ2 (fluorescence quantum yield)” value ([2]; solvent DMSO) was 0.002, the “Φ1 (fluorescence quantum yield)” value ([2]; solvent Ethanol) was 0.019 and the “Φ2 (fluorescence quantum yield)” value ([2]; solvent Ethanol) was 0.006. For the same compound, the “Φ1 (fluorescence quantum yield)” value ([2]; solvent Methanol) was 0.011, the “Φ2 (fluorescence quantum yield)” value ([2]; solvent Methanol) was 0.004 and the “Φ1 (fluorescence quantum yield)” value ([2]; solvent THF) was 0.037. For the same compound, the “Φ2 (fluorescence quantum yield)” value ([2]; solvent THF) was 0.0002, the “Φ1 (fluorescence quantum yield)” value ([2]; solvent Water) was 0.003 and the “Φ2 (fluorescence quantum yield)” value ([2]; solvent Water) was 0.001.
